Experimental data published in PMC10534693, “A High-Performance Liquid Chromatography with Photodiode Array Detection Method for Simultaneous Determination of Three Compounds Isolated from Wikstroemia ganpi: Assessment of the Effects on Cytochrome P450-Mediated Metabolism In Vitro and In Vivo” (Nutrients, 2023).
Where two headings read alike, the source gives them in different places.

Legend:
[1] = In vivo pharmacokinetic study of BUS with or without WGM in rats; details: rat, plasma, po, 30 mg/kg; for AUC(0-inf) / Cmax / half-life: mean ± SD, n = 6
Method: The blood was immediately centrifuged at 3000× g for 10 min at 4 °C to obtain the plasma, which was pretreated and analyzed using the UPLC-MS/MS method.
(§1) The average plasma pharmacokinetic parameters, including the area under the curve from time 0 extrapolated to infinity (AUCinf) and the terminal half-life (t1/2), were determined using a non-compartment model (WinNonlin Ver. 3.1; Certara, Inc., Princeton, NJ, USA). The peak time (Tmax) and maximal concentration (Cmax) were obtained directly from the observed plasma concentration-time profiles. A t-test was used to compare two unpaired means, and a p-value of below 0.05 was considered statistically significant.

[2] = Stability of marker components in WGM sample and reference stock solutions (HPLC-PDA peak area); type: physicochemical; details: for Peak Area (%) 6 h / Peak Area (%) 24 h / Peak Area (%) 48 h / Peak Area (%) 72 h: vs 0 h, n = 5; for Decrease of peak area / Increase of peak area: Reference solution
Source text: The developed HPLC-PDA simultaneous analysis conditions were validated according to ICH Q2(R1) guidelines. The validation characteristics included specificity, linearity, detection limit, quantitation limit, precision, recovery, and stability. Specificity is defined as the ability to clearly identify an analyte in a sample containing a mixture of impurities. This was verified by comparing and overlaying the chromatograms and PDA spectra obtained from the WGM samples and the reference mixture to confirm that the retention time (tR), spectral pattern, and maximum absorption wavelength (λmax) of the three reference compounds were consistent. Linearity is a test used to derive calibration curves by obtaining measurements that are directly proportional to the concentration of the substance being examined within a certain range. The stock solutions of 7-methoxyluteolin-5-O-glucoside (1), pilloin 5-O-β-D-glucopyranoside (2), and rutarensin (3) were diluted to six target concentrations (5.0, 50.0, 250.0, 400.0, 500.0, and 600.0 μg/mL) in DMSO/MeOH (50:50, v/v) mixtures, and six replicates (n = 6) were performed for each working solution. The calibration curve was expressed using a linear equation (y = ax + b) through linear regression analysis as a function of the area (y) vs. the concentration (x) of each reference peak, and the slope (a), y-intercept (b), and correlation coefficient (r^2) were calculated. The correlation coefficients for the acceptance criteria exceeded 0.999. The detection limit (DL) and quantitation limit (QL) are the minimum detection and quantitation limits of the analyte in the sample, respectively, that can be reliably quantified. These values were measured using the standard deviation (SD) of the y-intercept (σ) and the slope of the calibration curve (S) derived based on the linearity evaluation and were calculated as follows: DL = 3.3 σ/S and QL = 10 σ/S. Precision is an analytical procedure used to evaluate repeatability and reproducibility. The repeatability of the experiment was assessed by measuring the intra- and inter-day precision. Three reference compounds were repeated five times (n = 5) at low, medium and high concentration levels (10.0, 100.0, and 300.0 µg/mL). Intra-day precision was injected on the same day, while inter-day precision was injected on days 1, 3, and 5. The results were determined using the relative standard deviation (RSD) of the peak area. The %RSD was calculated as follows: RSD (%) = (standard deviation/mean measured amount) × 100. %RSD value of <2% means that the developed HPLC-PDA method is precise and reproducible enough for simultaneous analysis and evaluation of the three compounds. […] The analysis was repeated three times (n = 3), and the measured values were calculated as follows: % recovery = (found concentration-original concentration)/spiked concentration × 100. Stability was used to evaluate the degree of change in the solution concentration with storage conditions and time. […] The stability results were evaluated as the %peak area change and %RSD between the mean peak area of the control group (0 h) and that of the experimental group (6, 24, 48, and 72 h).

[3] = tested on: CYP3A; test: Inhibition of CYP3A-mediated metabolism (disappearance) of buspirone in rat liver S9 fraction; type: in vitro ADME; details: 1 μM BUS; for IC50 at 30 min: probe buspirone (BUS), rat liver S9 fraction 1 mg/mL, n = 5
Method: CYP isoforms-specific probe substrates were BUS for CYP3A, DIC for CYP2C, and DEX for CYP2D [34, 35, 37]. Dose–response curves assessed metabolic inhibition of BUS in the presence of 1 μM BUS and 10 different concentrations (0, 0.1, 0.5, 1, 2, 5, 10, 20, 50, and 100 μM) of 7-methoxyluteolin-5-O-glucoside, pilloin 5-O-β-D-glucopyranoside or rutarensin. The mixture without substrate and inhibitor was incubated for 5 min at 37 °C, after which the substrate and inhibitor were added to initiate the enzyme reaction. After incubating BUS (reaction time: 30 min), DIC and DEX (reaction time: 60 min) at 37 °C at a speed of 500 oscillations/min, a sample was obtained from the reaction mixture and mixed with cold acetonitrile containing an internal standard (IS) to terminate the reaction. After sample preparation, the samples were analyzed using the ultra-performance liquid chromatography–tandem mass spectrometry (UPLC-MS/MS) method (see the sections entitled ‘Biological Sample Preparation’ and ‘UPLC-MS/MS Conditions’ in the Supplementary Materials).
as §1

[4] = BUS 30 mg/kg oral co-administered with 1 g/kg WGM
[5] = Reference solution (DMSO/MeOH 50:50), 4 °C
[6] = Reference solution (DMSO/MeOH 50:50), R.T.

Peak Area (%) 6 h [2, 5] | Peak Area (%) 24 h [2, 5] | Peak Area (%) 48 h [2, 5] | Peak Area (%) 72 h [2, 5] | Peak Area (%) 6 h [2, 6] | Peak Area (%) 24 h [2, 6] | Peak Area (%) 48 h [2, 6] | Peak Area (%) 72 h [2, 6] | Decrease of peak area ([2]; room temperature, after 6 h) | Peak Area (%) 6 h ([2]; WGM solution, 4 °C) | Peak Area (%) 24 h ([2]; WGM solution, 4 °C) | Peak Area (%) 48 h ([2]; WGM solution, 4 °C) | Peak Area (%) 72 h ([2]; WGM solution, 4 °C) | Peak Area (%) 6 h ([2]; WGM solution, R.T.) | Peak Area (%) 24 h ([2]; WGM solution, R.T.) | Peak Area (%) 48 h ([2]; WGM solution, R.T.) | Peak Area (%) 72 h ([2]; WGM solution, R.T.) | IC50 at 30 min [3] | SMILES | also measured
– | – | – | – | – | – | – | – | – | – | – | – | – | – | – | – | – | – | O=C1CC2(CCCC2)CC(=O)N1CCCCN1CCN(c2ncccn2)CC1 [BUS, Buspirone] | Tmax ([1]; 30 mg/kg oral, with or without WGM, read-out: Tmax of BUS): 5 to 15 min; AUC(0-inf) [1, 4]: 1980 ng·h/mL; Cmax [1, 4]: 2020 ± 619 ng/mL; half-life [1, 4]: 103 ± 27 min; Tmax ([1]; BUS 30 mg/kg oral co-administered with 1 g/kg WGM, n = 6, read-out: Tmax (converted)): 5 min; AUC(0-inf) ([1]; BUS alone, 30 mg/kg oral): 1640 ng·h/mL; Cmax ([1]; BUS alone, 30 mg/kg oral): 1630 ± 762 ng/mL; half-life ([1]; BUS alone, 30 mg/kg oral): 111 ± 23 min; Tmax ([1]; BUS alone, 30 mg/kg oral, n = 6, read-out: Tmax (converted)): 10 min
98.02% | 99.40% | 98.78% | 101.22% | 96.77% | 98.82% | 98.54% | 98.72% | 3.23% | 100.19% | 99.30% | 98.91% | 102.15% | 101.30% | 101.14% | 98.98% | 103.56% | – | COc1cc2cc(Oc3ccc4ccc(=O)oc4c3)c(=O)oc2cc1O[C@@H]1O[C@H](COC(=O)CC(C)(O)CC(=O)O)[C@@H](O)[C@H](O)[C@H]1O (some centres unmarked) [Compound 3, rutarensin] | Inhibition of BUS metabolism (dose-response) ([3]; rat liver S9 fraction, 0-100 μM marker compound): did not inhibit
99.29% | 102.15% | 104.42% | 101.79% | 101.71% | 103.18% | 107.58% | 103.48% | – | 100.32% | 99.18% | 98.86% | 102.02% | 101.41% | 101.08% | 98.97% | 103.35% | 18.7 µM | COc1cc(O[C@@H]2O[C@H](CO)[C@@H](O)[C@H](O)[C@H]2O)c2c(=O)cc(-c3ccc(OC)c(O)c3)oc2c1 [Compound 2, pilloin 5-O-β-D-glucopyranoside] | Increase of peak area ([2]; 4 °C, after 48 h): 4.42%; Increase of peak area ([2]; R.T., after 48 h): 7.58%; Increase of peak area ([2]; room temperature, after 6 h): 1.71%
99.15% | 96.60% | 96.58% | 97.39% | 99.46% | 98.56% | 100.34% | 99.03% | 0.54% | 100.10% | 98.87% | 98.63% | 101.60% | 100.80% | 100.10% | 97.43% | 100.99% | 2.73 µM | COc1cc(O[C@@H]2O[C@H](CO)[C@@H](O)[C@H](O)[C@H]2O)c2c(=O)cc(-c3ccc(O)c(O)c3)oc2c1 [Compound 1, 7-methoxyluteolin-5-O-glucoside] | –
